# According to ChEMBL document CHEMBL5365519, “Design and Characterization of 1,3-Dihydro-2H-benzo[d]azepin-2-ones as Rule-of-5 Compliant Bivalent BET Inhibitors” (ACS Med Chem Lett, 2023):
# Key:
# [1] = molecular target: T1, C-C motif chemokine 2 (Homo sapiens, UniProt P13500); assay: Inhibition of MCP-1 in LPS-stimulated human whole blood pretreated with compound for 30 mins followed by LPS-stimulation and measured after 10 mins by microplate analysis; assay type: tissue-based
# [2] = molecular target: T1, C-C motif chemokine 2; assay: Inhibition of MCP-1 in LPS-stimulated human PBMC cells pretreated with compound for 30 mins followed by LPS-stimulation and measured after 10 mins by microplate analysis; assay type: cell-based
# [3] = system: HL-60; assay: Antiproliferative activity against human HL-60 cells assessed as inhibition of cell growth incubated for 72 hrs by cell-titer glo assay; assay type: functional, cell-based; settings: HL-60, 72 h
# [4] = Antiproliferative activity against human NMC 11060 cell assessed as inhibition of cell growth incubated for 72 hrs by cell-titer glo assay; assay type: functional, cell-based; settings: NMC 11060, 72 h
# [5] = molecular target: T2, Bromodomain-containing protein 4 (Homo sapiens, UniProt O60885); assay: Inhibition of BRD4 BD1 (unknown origin) by TR-FRET assay
# [6] = molecular target: T2, Bromodomain-containing protein 4; assay: Inhibition of BRD4 BD2 (unknown origin) by TR-FRET assay
# [7] = molecular target: T2, Bromodomain-containing protein 4; assay: Inhibition of histone binding to BRD4 (unknown origin) expressed in HEK293 cells using histone H3.3 as substrate incubated for 18 to 24 hrs by nano-BRET analysis; assay type: cell-based
# [8] = molecular target: T2, Bromodomain-containing protein 4; assay: Inhibition of halo-tagged BRD4 (unknown origin) expressed in HEK293 cells incubated for 4 hrs by biosensor assay; assay type: cell-based
# [9] = Lipophilicity, logD of compound at pH 7.4 by HPLC analysis; assay type: physicochemical; settings: buffer
# [10] = Solubility of compound in simulated lung fluid at pH 6.9; assay type: physicochemical
# [11] = system: MV4-11; assay: Antiproliferative activity against human MV4-11 cells assessed as inhibition of cell growth incubated for 72 hrs by cell-titer glo assay; assay type: functional, cell-based; settings: MV4-11, 72 h
# T1 sequence (P13500 whole entry): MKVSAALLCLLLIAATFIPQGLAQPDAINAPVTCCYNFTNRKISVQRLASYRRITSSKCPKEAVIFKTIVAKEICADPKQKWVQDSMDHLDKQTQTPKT
SMILES,IC50 [1],IC50 [2],IC50 [3],IC50 [4],IC50 [5],IC50 [6],IC50 [7],EC50 [8],logD [9],solubility [10],IC50 [11],pIC50 ([2]; pbmc)
Cc1sc2c(c1C)C(c1ccc(Cl)cc1)=N[C@@H](CC(=O)OC(C)(C)C)c1nnc(C)n1-2,631 nM,6.31 nM,–,–,–,–,–,–,–,–,–,–
COc1cc2c(cc1-c1c(C)noc1C)ncc1[nH]c(=O)n([C@H](C)c3ccccn3)c12,200 nM,39.8 nM,126 nM,631 nM,–,–,–,–,–,–,–,–
COCC(COC)n1c(-c2cc(C)c(=O)n(C)c2)nc2cc(N3CCOCC3)ccc21,25.1 nM,7.94 nM,–,–,–,–,–,–,–,–,–,–
C[C@@H]1C(=O)N(C)CCN1CCOc1ccc(C2CCN(c3ccc4nncn4n3)CC2)cc1,2000 nM,200 nM,–,–,25100 nM,39800 nM,398 nM,1000 nM,–,–,–,–
COc1cc2c(cc1OC)[C@@H](C)C(=O)N(C)C=C2,1000 nM,50.1 nM,–,–,–,–,–,–,–,–,–,–
C[C@H]1C(=O)N(C)C=Cc2cc(OCCCCCOc3ccc4c(c3)C=CN(C)C(=O)[C@@H]4C)ccc21,12.6 nM,< 2 nM,–,–,39.8 nM,20 nM,0.631 nM,7.94 nM,7.4,< 1 µg/mL,–,–
C[C@H]1C(=O)N(C)C=Cc2cc(OCCCCCCCOc3ccc4c(c3)C=CN(C)C(=O)[C@@H]4C)ccc21,79.4 nM,< 2 nM,–,–,79.4 nM,39.8 nM,1 nM,3.98 nM,8.5,–,–,–
CC1C(=O)N(C)C=Cc2ccc(OCCCCCCOc3ccc4c(c3)C(C)C(=O)N(C)C=C4)cc21 (configuration not stated),3980 nM,–,–,–,3160 nM,≥ 1580 nM,> 1000 nM,1000 nM,–,–,–,–
C[C@H]1C(=O)N(C)C=Cc2cc(OCCOc3ccc4c(c3)C=CN(C)C(=O)[C@@H]4C)ccc21,126 nM,0.251 nM,–,–,63.1 nM,31.6 nM,0.631 nM,1.26 nM,5.8,–,–,–
C[C@H]1C(=O)N(C)C=Cc2cc(OCCCCOc3ccc4c(c3)C=CN(C)C(=O)[C@@H]4C)ccc21,5.01 nM,0.0398 nM,0.398 nM,0.794 nM,3.16 nM,6.31 nM,0.316 nM,1.58 nM,7.1,2 µg/mL,0.501 nM,–
C[C@H]1C(=O)N(C)C=Cc2cc(OCCCOc3ccc4c(c3)C=CN(C)C(=O)[C@@H]4C)ccc21,50.1 nM,< 2 nM,–,–,100 nM,39.8 nM,15.8 nM,2.51 nM,6.7,< 1 µg/mL,–,–
CC1C(=O)N(C)C=Cc2ccc(OCCCCCOc3ccc4c(c3)C(C)C(=O)N(C)C=C4)cc21 (configuration not stated),15800 nM,–,–,–,631 nM,3980 nM,–,–,7.5,–,–,–
C[C@H]1C(=O)N(C)C=Cc2cc(CN3CCN(Cc4ccc5c(c4)C=CN(C)C(=O)[C@@H]5C)CC3)ccc21,6.31 nM,< 0.2 nM,–,–,15.8 nM,25.1 nM,0.501 nM,2 nM,5.43,465 µg/mL,–,–
COc1nnc2ccc(N3CCC(c4ccc(OCCN5CCN(C)C(=O)[C@H]5C)cc4)CC3)nn12 [AZD-5153],15.8 nM,3.16 nM,–,–,398 nM,3160 nM,15.8 nM,15.8 nM,–,–,–,–
CC(=O)Nc1c(F)cc(C(=O)N[C@H]2CC[C@H](O)CC2)cc1O[C@@H](C)c1ccccc1 [GSK046],–,–,–,–,–,–,–,–,–,–,–,7.5
COCc1nc2cnc3cc(-c4c(C)noc4C)c(OC[C@H]4CCNC4)cc3c2n1[C@H](C)c1ccccc1 [GSK778],158 nM,–,–,–,–,–,–,–,–,–,–,–
